{
  "source": "paper PMC10449633",
  "about": "(Nature Chemical Biology, 2023)",
  "key": {"Vero E6 cells": {"tested_on": "Vero E6 cells", "conditions": "Mock infected 48 h"}, "[1]": {"tested_on": "T-cell acute lymphoblastic leukemia cells", "conditions": "in vitro; cited from earlier work"}, "Sec61α R66I": {"target": "Sec61α R66I (Canis lupus familiaris, UniProt P38377, R66I)", "sequence (P38377 whole entry R66I)": "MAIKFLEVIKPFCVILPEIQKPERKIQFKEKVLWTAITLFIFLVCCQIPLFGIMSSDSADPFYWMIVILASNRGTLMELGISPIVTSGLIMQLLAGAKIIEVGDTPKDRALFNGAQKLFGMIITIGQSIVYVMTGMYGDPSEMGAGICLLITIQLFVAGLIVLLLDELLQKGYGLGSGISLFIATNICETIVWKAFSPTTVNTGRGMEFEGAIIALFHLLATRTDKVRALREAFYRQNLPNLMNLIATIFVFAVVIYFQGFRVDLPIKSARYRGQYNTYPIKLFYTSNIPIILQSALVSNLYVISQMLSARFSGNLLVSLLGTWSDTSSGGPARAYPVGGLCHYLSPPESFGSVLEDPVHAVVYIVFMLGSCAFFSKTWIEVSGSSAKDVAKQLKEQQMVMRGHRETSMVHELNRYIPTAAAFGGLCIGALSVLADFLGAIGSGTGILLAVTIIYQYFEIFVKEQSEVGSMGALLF", "sequence (P60059 whole entry, further chain)": "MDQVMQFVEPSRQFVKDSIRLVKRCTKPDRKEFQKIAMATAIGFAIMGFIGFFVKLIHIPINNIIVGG", "sequence (P60468 whole entry, further chain)": "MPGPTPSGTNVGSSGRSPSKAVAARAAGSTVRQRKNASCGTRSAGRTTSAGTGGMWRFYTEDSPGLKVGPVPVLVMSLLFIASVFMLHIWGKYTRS", "assay": "Luciferase reporter assay in HEK293 cells expressing Sec61α R66I", "set-up": "remaining activity: dose or concentration left out as unconfirmed", "experimental": "(§1) Data are mean values ± s.d. from n = 2 independent experiments.\n(§2) HEK293T cells (0.3 × 10^6) were seeded per well of a six-well plate and incubated at 37 °C in 5% CO2 for 24 h to adhere. Each of the two wells was transfected with 1 µg of plasmid encoding a luciferase with the signal peptide of either VCAM1 or pPL using PEI in a 5:1 ratio, after which cells were returned to the incubator for a further 24 h. Transfected cells were then resuspended following trypsinization, cell count estimated using a TC20 Automated Cell Counter (BioRad) and diluted to seed a 96-well flat-bottom plate with 1.6 × 10^4 cells per well. […] Cells were then incubated for a further 24 h, after which the luciferase-containing media were transferred to a clean 96-well plate and stored at −20 °C. Luciferase activity of the media was estimated using a Gaussia-GLOW Juice Luciferase Assay kit from PJK Biotech GmbH as per the manufacturer’s instructions. Luminescence was measured using an EnSpire Multimode plate reader (PerkinElmer). Background luminescence from media placed in a well with neither cells nor drug was subtracted from all values, and measurements were calculated as a percentage of luminescence intensity of a well expressing the appropriate luciferase construct in the absence of any drug. Curves were fitted, and IC50 values were calculated using GraphPad Prism 8.\n(§3) WT canine Sec61 was cloned into pcDNA5/FRT/TO (Thermo Fisher Scientific), and point mutations were generated using PCR. All mutants were sequence verified. HEK293 Flp-In T-REx cells (Thermo Fisher Scientific, R78007) were cultured in Dulbecco’s modified Eagle’s medium (Gibco) supplemented with 10% FBS (Gibco) at 37 °C in a humidified 5% CO2 atmosphere. Approximately 0.3 µg of pOG44 and 1 µg of targeting construct plasmids were mixed in 250 µl of OptiMEM (Thermo Fisher Scientific, 51985-026). A total of 3 µl (3 µg) Lipofectamine3000 transfection reagent was then added to the DNA mix and incubated at room temperature for 20 min, and the whole mixture was added to the cells. Cells were exposed to 100 µg ml^−^1 hygromycin B (Invitrogen) and 10 µg ml^−^1 blasticidin for 3–4 weeks until the appearance of resistant colonies. Colonies were expanded into T75 flasks and induced with doxycycline (Sigma-Aldrich, D9891) at a concentration of 1–5 µg ml^−^1 for 48 h. Cells were collected, and total RNA was extracted followed by cDNA amplification and sequencing of Sec61 with gene-specific PCR primers to confirm. Cells were then used for the luciferase reporter assays as above.\n(§4) Data are mean values ± SD and are representative of n = 2 independent experiments."}, "Sec61α S82P": {"target": "Sec61α S82P (Canis lupus familiaris, UniProt P38377, S82P)", "sequence (P60468 whole entry)": "as the sequence (P60468 whole entry, further chain) above", "sequence (P38377 whole entry S82P)": "as the sequence (P38377 whole entry R66I) above, with I66R, S82P counted along it", "sequence (P60059 whole entry, further chain)": "as the sequence (P60059 whole entry, further chain) above", "assay": "Luciferase reporter assay in HEK293 cells expressing Sec61α S82P", "set-up": "remaining activity: dose or concentration left out as unconfirmed", "conditions": "HEK293, 24 h, read-out: luciferase reporter activity (% of no-drug control), S82P", "experimental": "as §1, §2\nHEK293 Flp-In T-REx cells (Thermo Fisher Scientific, R78007) were cultured in Dulbecco’s modified Eagle’s medium (Gibco) supplemented with 10% FBS (Gibco) at 37 °C in a humidified 5% CO2 atmosphere. Approximately 0.3 µg of pOG44 and 1 µg of targeting construct plasmids were mixed in 250 µl of OptiMEM (Thermo Fisher Scientific, 51985-026). A total of 3 µl (3 µg) Lipofectamine3000 transfection reagent was then added to the DNA mix and incubated at room temperature for 20 min, and the whole mixture was added to the cells. Cells were exposed to 100 µg ml^−^1 hygromycin B (Invitrogen) and 10 µg ml^−^1 blasticidin for 3–4 weeks until the appearance of resistant colonies. Colonies were expanded into T75 flasks and induced with doxycycline (Sigma-Aldrich, D9891) at a concentration of 1–5 µg ml^−^1 for 48 h. Cells were collected, and total RNA was extracted followed by cDNA amplification and sequencing of Sec61 with gene-specific PCR primers to confirm. Cells were then used for the luciferase reporter assays as above.\nas §4"}, "Sec61α Q294A": {"target": "Sec61α Q294A (Canis lupus familiaris, UniProt P38377, Q294A)", "sequence (P60059 whole entry)": "as the sequence (P60059 whole entry, further chain) above", "sequence (P38377 whole entry Q294A)": "as the sequence (P38377 whole entry R66I) above, with I66R, Q294A counted along it", "sequence (P60468 whole entry, further chain)": "as the sequence (P60468 whole entry, further chain) above", "assay": "Luciferase reporter assay in HEK293 cells expressing Sec61α Q294A", "set-up": "remaining activity: dose or concentration left out as unconfirmed", "conditions": "HEK293, 24 h, read-out: luciferase reporter activity (% of no-drug control), Q294A", "experimental": "as §1, §2, §3, §4"}, "Sec61α N300A": {"target": "Sec61α N300A (Canis lupus familiaris, UniProt P38377, N300A)", "sequence (P60468 whole entry)": "as the sequence (P60468 whole entry, further chain) above", "sequence (P60059 whole entry, further chain)": "as the sequence (P60059 whole entry, further chain) above", "sequence (P38377 whole entry N300A)": "as the sequence (P38377 whole entry R66I) above, with I66R, N300A counted along it", "assay": "Luciferase reporter assay in HEK293 cells expressing Sec61α N300A", "set-up": "remaining activity: dose or concentration left out as unconfirmed", "experimental": "as §1, §2, §3, §4"}},
  "note": "Several values for one entry are separate records, joined by “and”; a condition that tells them apart may be missing. Equal values may be shown once. Read-outs that look alike come from different tables or passages of the source. Numbered stars: 1 amine (or outer) side, 2 acyl side, 3 side chain; on linkers, the order of the positions; unused ones are H or OH. Square brackets hold non-standard residues; d marks the D form. Peptide text beside a SMILES is read from it. ξ: configuration not given here. X1 = CN(C(Cc1cn(Cc2ccc(Br)cc2)c2ccccc12)C(=O)[*:2])[*:1]; ξAla(CF3) = NC(CC(F)(F)F)C(=O)O; X2 = N#CCCC(O[*:1])C(=O)[*:2]; NMeL = CN[CH](CC(C)C)C(=O)O; NMeA = CN[CH](C)C(=O)O",
  "data": [
    {"smiles": "CC(C)CC1NC(=O)C(Cc2cn(Cc3ccc(Br)cc3)c3ccccc23)N(C)C(=O)C(CC(F)(F)F)NC(=O)C(CC(C)C)N(C)C(=O)C(CC(F)(F)F)NC(=O)C(CCC#N)OC(=O)C(C)N(C)C1=O", "note": "(centres unmarked) [KZR-8445] (cyclo([X1]L[NMeA][X2][ξAla(CF3)][NMeL][ξAla(CF3)]); configuration not given here)", "values": [
      {"measurement": "cell viability", "setting": "Vero E6 cells; 0.01 uM", "value": "91.0268 and 102.167 and 114.581"},
      {"measurement": "cell viability", "setting": "Vero E6 cells; 0.04 uM", "value": "90.9801 and 99.0668 and 98.0954"},
      {"measurement": "cell viability", "setting": "Vero E6 cells; 0.12 uM", "value": "93.1234 and 96.6644 and 96.0334"},
      {"measurement": "cell viability", "setting": "Vero E6 cells; 0.37 uM", "value": "79.1404 and 83.8559 and 91.7442"},
      {"measurement": "cell viability", "setting": "Vero E6 cells; 1.11 uM", "value": "83.2343 and 88.2826 and 88.422"},
      {"measurement": "cell viability", "setting": "Vero E6 cells; 3.33 uM", "value": "85.0888 and 89.2631 and 88.8876"},
      {"measurement": "cell viability", "setting": "Vero E6 cells; 10 uM", "value": "76.0738 and 86.0259 and 84.7152"},
      {"measurement": "dexamethasone resistance in T-ALL cells", "setting": "[1]", "value": "overcome dexamethasone resistance"},
      {"measurement": "remaining activity at 0.00018303 µM", "setting": "Sec61α R66I; HEK293, 24 h, read-out: luciferase reporter activity (% of no-drug control), R66I, Drug nM (log10) 0.18303", "value": 90.3, "unit": "%"},
      {"measurement": "remaining activity at 0.000660151 µM", "setting": "Sec61α R66I; HEK293, 24 h, read-out: luciferase reporter activity (% of no-drug control), R66I, Drug nM (log10) 0.660151", "value": 85.2, "unit": "%"},
      {"measurement": "remaining activity at 0.00113727 µM", "setting": "Sec61α R66I; HEK293, 24 h, read-out: luciferase reporter activity (% of no-drug control), R66I, Drug nM (log10) 1.13727", "value": 74.3, "unit": "%"},
      {"measurement": "remaining activity", "setting": "Sec61α R66I; HEK293, 24 h, read-out: luciferase reporter activity (% of no-drug control), R66I, Drug nM (log10) 1.61439", "value": 58.4, "unit": "%"},
      {"measurement": "remaining activity", "setting": "Sec61α R66I; HEK293, 24 h, read-out: luciferase reporter activity (% of no-drug control), R66I, Drug nM (log10) 2.09151", "value": 48.6, "unit": "%"},
      {"measurement": "remaining activity", "setting": "Sec61α R66I; HEK293, 24 h, read-out: luciferase reporter activity (% of no-drug control), R66I, Drug nM (log10) 2.56864", "value": 41.2, "unit": "%"},
      {"measurement": "remaining activity", "setting": "Sec61α R66I; HEK293, 24 h, read-out: luciferase reporter activity (% of no-drug control), R66I, Drug nM (log10) 3.04576", "value": 39.3, "unit": "%"},
      {"measurement": "remaining activity", "setting": "Sec61α R66I; HEK293, 24 h, read-out: luciferase reporter activity (% of no-drug control), R66I, Drug nM (log10) 3.52288", "value": 35.2, "unit": "%"},
      {"measurement": "remaining activity at 0.004 µM", "setting": "Sec61α R66I; HEK293, 24 h, read-out: luciferase reporter activity (% of no-drug control), R66I, Drug nM (log10) 4", "value": 39, "unit": "%"},
      {"measurement": "remaining activity at 0.00050805 µM", "setting": "Sec61α R66I; HEK293, 24 h, read-out: luciferase reporter activity (% of no-drug control), R66I, Drug nM (log10) -0.29409", "value": 90, "unit": "%"},
      {"measurement": "effect of R66I mutation on sensitivity in secreted GLuc assay", "setting": "Sec61α R66I; HEK293 cells", "value": "conferred resistance"},
      {"measurement": "remaining activity at 0.00018303 µM", "setting": "Sec61α S82P; Drug nM (log10) 0.18303", "value": 99, "unit": "%"},
      {"measurement": "remaining activity at 0.000660151 µM", "setting": "Sec61α S82P; Drug nM (log10) 0.660151", "value": 80.3, "unit": "%"},
      {"measurement": "remaining activity at 0.00113727 µM", "setting": "Sec61α S82P; Drug nM (log10) 1.13727", "value": 73.5, "unit": "%"},
      {"measurement": "remaining activity", "setting": "Sec61α S82P; Drug nM (log10) 1.61439", "value": 47.5, "unit": "%"},
      {"measurement": "remaining activity", "setting": "Sec61α S82P; Drug nM (log10) 2.09151", "value": 22.4, "unit": "%"},
      {"measurement": "remaining activity", "setting": "Sec61α S82P; Drug nM (log10) 2.56864", "value": 10.1, "unit": "%"},
      {"measurement": "remaining activity", "setting": "Sec61α S82P; Drug nM (log10) 3.04576", "value": 4.21, "unit": "%"},
      {"measurement": "remaining activity", "setting": "Sec61α S82P; Drug nM (log10) 3.52288", "value": 2.82, "unit": "%"},
      {"measurement": "remaining activity at 0.004 µM", "setting": "Sec61α S82P; Drug nM (log10) 4", "value": 3.25, "unit": "%"},
      {"measurement": "remaining activity at 0.00050805 µM", "setting": "Sec61α S82P; Drug nM (log10) -0.29409", "value": 102, "unit": "%"},
      {"measurement": "remaining activity at 0.00018303 µM", "setting": "Sec61α Q294A; Drug nM (log10) 0.18303", "value": 80.7, "unit": "%"},
      {"measurement": "remaining activity at 0.000660151 µM", "setting": "Sec61α Q294A; Drug nM (log10) 0.660151", "value": 67.2, "unit": "%"},
      {"measurement": "remaining activity at 0.00113727 µM", "setting": "Sec61α Q294A; Drug nM (log10) 1.13727", "value": 44.1, "unit": "%"},
      {"measurement": "remaining activity", "setting": "Sec61α Q294A; Drug nM (log10) 1.61439", "value": 22.4, "unit": "%"},
      {"measurement": "remaining activity", "setting": "Sec61α Q294A; Drug nM (log10) 2.09151", "value": 11, "unit": "%"},
      {"measurement": "remaining activity", "setting": "Sec61α Q294A; Drug nM (log10) 2.56864", "value": 4.26, "unit": "%"},
      {"measurement": "remaining activity", "setting": "Sec61α Q294A; Drug nM (log10) 3.04576", "value": 2.2, "unit": "%"},
      {"measurement": "remaining activity", "setting": "Sec61α Q294A; Drug nM (log10) 3.52288", "value": 1.85, "unit": "%"},
      {"measurement": "remaining activity at 0.004 µM", "setting": "Sec61α Q294A; Drug nM (log10) 4", "value": 2.09, "unit": "%"},
      {"measurement": "remaining activity at 0.000508 µM", "setting": "Sec61α Q294A; Drug nM (log10) -0.29409", "value": 89.6, "unit": "%"},
      {"measurement": "remaining activity at 0.00018303 µM", "setting": "Sec61α N300A; HEK293, 24 h, read-out: luciferase reporter activity (% of no-drug control), N300A, Drug nM (log10) 0.18303", "value": 95.9, "unit": "%"},
      {"measurement": "remaining activity at 0.000660151 µM", "setting": "Sec61α N300A; HEK293, 24 h, read-out: luciferase reporter activity (% of no-drug control), N300A, Drug nM (log10) 0.660151", "value": 88.9, "unit": "%"},
      {"measurement": "remaining activity at 0.00113727 µM", "setting": "Sec61α N300A; HEK293, 24 h, read-out: luciferase reporter activity (% of no-drug control), N300A, Drug nM (log10) 1.13727", "value": 80.9, "unit": "%"},
      {"measurement": "remaining activity", "setting": "Sec61α N300A; HEK293, 24 h, read-out: luciferase reporter activity (% of no-drug control), N300A, Drug nM (log10) 1.61439", "value": 74.8, "unit": "%"},
      {"measurement": "remaining activity", "setting": "Sec61α N300A; HEK293, 24 h, read-out: luciferase reporter activity (% of no-drug control), N300A, Drug nM (log10) 2.09151", "value": 69.1, "unit": "%"},
      {"measurement": "remaining activity", "setting": "Sec61α N300A; HEK293, 24 h, read-out: luciferase reporter activity (% of no-drug control), N300A, Drug nM (log10) 2.56864", "value": 69.9, "unit": "%"},
      {"measurement": "remaining activity", "setting": "Sec61α N300A; HEK293, 24 h, read-out: luciferase reporter activity (% of no-drug control), N300A, Drug nM (log10) 3.04576", "value": 64, "unit": "%"},
      {"measurement": "remaining activity", "setting": "Sec61α N300A; HEK293, 24 h, read-out: luciferase reporter activity (% of no-drug control), N300A, Drug nM (log10) 3.52288", "value": 62, "unit": "%"},
      {"measurement": "remaining activity at 0.004 µM", "setting": "Sec61α N300A; HEK293, 24 h, read-out: luciferase reporter activity (% of no-drug control), N300A, Drug nM (log10) 4", "value": 67.2, "unit": "%"},
      {"measurement": "remaining activity at 0.000508 µM", "setting": "Sec61α N300A; HEK293, 24 h, read-out: luciferase reporter activity (% of no-drug control), N300A, Drug nM (log10) -0.29409", "value": 96.5, "unit": "%"},
      {"measurement": "effect of N300A Sec61α expression on sensitivity in secreted GLuc assay", "setting": "Sec61α N300A; HEK293 cells", "value": "conferred resistance"}
    ]}
  ]
}
